Consider 1 compound from US20230000063A1, “SYSTEM FOR DETECTING EXTRACELLULAR PURINERGIC RECEPTOR LIGAND, AND NON-HUMAN ANIMAL HAVING THE SYSTEM INTRODUCED THEREINTO” (Chugai Seiyaku Kabushiki Kaisha, priority 2019, published 2023).

Assay [1] has as its target T1, human P2Y11 (Homo sapiens, UniProt Q96G91).
T1 construct: expressed in transfected cells; host or cells: cells of the P2Y11-split Luc (C-terminal)/Arrestin-split Luc (N-terminal) double knock-in mouse (Rosa26 locus): in vivo, and a skin fibroblast line derived from it
T1 sequence (Q96G91 1-374): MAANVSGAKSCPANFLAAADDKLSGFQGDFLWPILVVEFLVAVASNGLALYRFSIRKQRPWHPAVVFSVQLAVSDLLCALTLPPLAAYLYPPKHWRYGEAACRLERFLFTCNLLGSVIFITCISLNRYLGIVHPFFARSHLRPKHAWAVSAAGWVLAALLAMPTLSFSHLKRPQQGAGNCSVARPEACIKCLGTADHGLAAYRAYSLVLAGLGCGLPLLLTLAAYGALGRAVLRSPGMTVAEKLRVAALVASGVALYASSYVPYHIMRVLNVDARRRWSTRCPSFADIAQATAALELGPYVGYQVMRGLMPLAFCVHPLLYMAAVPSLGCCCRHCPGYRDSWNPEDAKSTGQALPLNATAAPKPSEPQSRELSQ
Put plainly: In vivo imaging of ATP at known concentration in the double knock-in mouse. As to conditions: 50 μL of 0, 1, 2, 4 or 8 mM ATP + 15 mg/mL VivoGlo Luciferin subcutaneously, IVIS 10 to 20 minutes after, exposure 60 sec. How it is done:
To a P2Y11-split Luc (C-terminal)/Arrestin-split Luc (N-terminal) double knock-in mouse, 50 μL of a mixture of ATP at a final concentration of 0 mM, 1 mM, 2 mM, 4 mM, or 8 mM and 15 mg/mL VivoGlo Luciferin (Promega #P1043) was subcutaneously administered. A luminescent signal intensity was measured with IVIS Spectrum CT (Perkin Elmer) 10 to 20 minutes after the ATP administration. The measurement was performed under conditions of exposure time of 60 sec, with medium binning, and F/stop of 1, and thus the luminescent signal was analyzed in terms of a physical quantity (photons/sec). […] Thus it was confirmed that the mouse functions as a concentration dependent reporter mouse (FIG. 6 and FIG. 7).

Assay [2] has as its target T1, human P2Y11. The assay can be described thus: Detection of in vitro ATP concentration in fibroblasts derived from the double knock-in mouse. It is filed as cell-based. As to conditions: fibroblast from double knock-in mouse; 0 to 1000 μM ATP + VivoGlo Luciferin; IVIS, exposure 180 sec. How it is done:
A skin tissue was collected from a P2Y11-split Luc (C-terminal)/Arrestin-split Luc (N-terminal) double knock-in mouse, and was sliced with a scalpel in a culture fluid, and the resultant was covered with a cover glass with a dermis side in contact with a bottom of a culture dish, and was cultured in a D-MEM medium supplemented with 10% FBS and 1×NEAA. Fibroblasts confirmed to have migration/growth of cells were collected by a trypsin treatment, and the resultant was repeatedly passaged to establish a fibroblast cell line.
The fibroblast derived from the P2Y-11 split Luc (C-terminal)/Arrestin-split Luc (N-terminal) double knock-in mouse was seeded in a 24-well culture plate. On the next day, ATP at a final concentration of 0 to 1000 μM and VivoGlo Luciferin (Promega #P1043) were added thereto, and a luminescent signal was detected with IVIS Spectrum CT (Perkin Elmer). The measurement was performed under conditions of exposure time of 180 sec, with medium binning, and F/Stop of 1, and thus the luminescent signal was analyzed in terms of a physical quantity (photons/sec).

The test system of assay [3] is human P2Y11. Put plainly: Detection of in vivo ATP signal in P2Y11-split Luc (C-terminal)/Arrestin-split Luc (N-terminal) double knock-in mouse. As to conditions: 50 μL of 1 mM ATP + 15 mg/mL VivoGlo Luciferin subcutaneously, IVIS 10 to 20 minutes after, not detected in single-allele or wild type mice. How it is done: To a P2Y11-split Luc (C-terminal)/Arrestin-split Luc (N-terminal) double knock-in mouse, 50 μL of a mixture of ATP at a final concentration of 1 mM and 15 mg/mL VivoGlo Luciferin (Promega #P1043) was subcutaneously administered. A luminescent signal intensity was measured with IVIS Spectrum CT (Perkin Elmer) 10 to 20 minutes after the ATP administration. The measurement was performed under conditions of exposure time of 180 sec, with medium binning, and F/stop of 1, and thus the luminescent signal was analyzed in terms of a physical quantity (photons/sec).

As for `Nc1ncnc2c1ncn2[C@@H]1O[C@H](COP(=O)(O)OP(=O)(O)OP(=O)(O)O)[C@@H](O)[C@H]1O` [ATP], the luminescent signal intensity result at human P2Y11 [1] is reported as “an ATP concentration-dependent signal intensity was detected”; on human P2Y11 [2] it was “a concentration-dependent signal intensity was detected”. Besides, the “luminescent signal due to the ATP administration” value in the assay on human P2Y11 [3] is given as “a luminescent signal due to the ATP administration was detected”.
